Test results: patent publication US9034403B2, “Yeast extract containing γ-Glu-X or γ-Glu-X-Gly and a method for producing the same” (AJINOMOTO CO., INC., priority 2010, dated 2015)

Experiments:
[1] = tested on: Saccharomyces cerevisiae S288C strain; assay: Addition of peptide to medium of S288C strain; peptide content in dry cells and in extract by LC-MS/MS; format: cell-based
Description: Absorbance of the obtained culture broth was measured, the culture broth was inoculated into SD medium (400 ml in a 2 L-volume conical flask with baffle fins, a pluratity of flasks) so that OD660 was 0.01 at the start of the culture (absorbance was measured by using DU640 SPECTROPHTOMETER, BECKMAN COULTER), and culture was performed at 30° C. for 19 hours with shaking by rotation at a velocity of 120 rpm. From the obtained culture broth, 400 OD units of the cells (1 OD unit is defined as cells contained in 1 ml of culture broth of which OD660 is 1) were collected by centrifugal separation. The supernatant was removed as much as possible, and the residual cells were suspended in 45 ml of Milli-Q water. The cells were collected again by centrifugal separation, and resuspended in 45 ml of Milli-Q water. By repeating this operation 3 times in total, the medium was completely removed from the cells. The washed cells were suspended in about 1.5 ml of Milli-Q water, and the suspension was heated at 70° C. for 10 minutes. By this step, the extractable components contained in the cells were extracted. Then, the extract and the cell residue were separated by centrifugation.
Cell debris were removed from the extract using a centrifugal filtration membrane of 10 kDa (Amicon Ultra—0.5 mL 10K, MILLIPORE, Catalogue Number UFC501096)), the obtained fraction was derivatized with the AQC reagent in the same manner as that used in Example 1, and γ-Glu-Val-Gly and γ-Glu-Val were measured by LC-MS/MS. Separately, the amount of GSH in the cells was measured in a conventional manner (GSH in the extract was derivatized by using a fluorescence reagent ABD-F that binds to thiol group, separated and quantified by HPLC). Furthermore, dry cell weight was measured after the washed cells were dried at 104° C. for 4 hours. From the amounts of γ-Glu-Val-Gly and γ-Glu-Val in the extract prepared from the cells that was contained in a certain volume of culture broth and dry cell weight measured as described above, the amount of these peptides based on weight of dried cells was calculated. […]
One loop of the S288C strain was inoculated into SD medium (50 ml in a 500 ml-volume Sakaguchi flask), and cultured at 30° C. for 24 hours with shaking at a velocity of 120 rpm. Absorbance of the obtained culture broth was measured, the culture broth was inoculated into SD medium (400 ml in a 2 L-volume conical flask with baffle fins, two or more flasks) so that OD660 was 0.01 at the start of the culture, and culture was performed at 30° C. for 19 hours with shaking by rotation at a velocity of 120 rpm. After 19 hours, γ-Glu-Val-Gly aqueous solutions of various concentrations were added to obtain predetermined concentrations, and the culture was continued for 1 hour. Using these culture broths, the γ-Glu-Val-Gly content in dry cells was calculated in the same manner as in Example 2. Furthermore, the solid content of the extract was calculated, and the amount of γ-Glu-Val-Gly in the solid content was also calculated. […]
The cells were collected from the total culture broth, and washed in the same manner as that of Example 2. The washed cells in an amount of 400 OD units were suspended in 1.5 ml of Milli-Q water. This suspension was maintained at 70° C. for 10 minutes to produce an extract from the yeast cells. Furthermore, the suspension was centrifuged to remove the cell residues and thereby collect only the extract. The γ-Glu-Val-Gly concentration of this extract (extract of addition experiment) was measured to be about 300 ppm, and solid content was about 1%. The γ-Glu-Val-Gly concentration in an extract prepared in the same way but without adding γ-Glu-Val-Gly to the culture broth (extract of no addition experiment) was below the quantitation limit, and solid content was about 1%.
One loop of the S288C strain was inoculated into SD medium (50 ml in a 500 ml-volume Sakaguchi flask), and cultured at 30° C. for 24 hours with shaking at a velocity of 120 rpm. […]

[2] = tested on: S288C and HGT1 or PTR2 modified strains (Hgt1p, Ptr2p); assay: Evaluation of γ-Glu-Val-Gly uptake activity of HGT1 or PTR2 modified strains; format: cell-based, Saccharomyces cerevisiae; conditions: 100 ppm γ-Glu-Val-Gly in SD medium, 7 hours
Description: The influence of Hgt1p, which has been considered to be a GSH specific transporter, and Ptr2p, which is a peptide transporter, on γ-Glu-Val-Gly accumulation was evaluated as follows.
Each strain was cultivated in 50-ml tubes containing 5 ml of SD medium with 100 ppm γ-Glu-Val-Gly as a final concentration. Tubes were inoculated by overnight culture of the corresponding strain at initial OD600=0.5, and placed in a rotation shaker at 240 rpm, 30° C. The cultivation time was 7 hours. Then, cells from 2 ml of broth culture were harvested by centrifugation, and were washed with 1 ml of milliQ water three times. Then, washed cells were suspended in 1 ml of milliQ and were incubated at 70° C. for 10 min with a water bath to extract intracellular materials. After cell debris and the extract were separated by centrifugation, the aqueous phase was transferred to a clean vial and the vial was then vacuum-dried. Thus, a dried extract was prepared. Then, the amount of γ-Glu-Val-Gly in the dried extract was measured with LC-MS/MS analysis. The detailed procedures are described below.
1. Sample was dissolved in 100 μl of water, and then 100 μl of acetonitrile (MeCN) was added, and then centrifuged.
2. 190 μl of supernatant was transferred to a new tube and dried.
3. Pellet was dissolved in 40 μl of water.
4. For derivatization, 20 μl of the obtained solution was mixed with 60 μl of buffer and 80 μl of derivatization reagent, and incubated at 55° C. for 10 min.
5. After incubation, 200 μl of 0.1% solution of HCOOH in water was added to stop AQC derivatization reaction.
40 μl of the resultingsolution was taken for HPLC, and γ-Glu-Val-Gly in the elutants was analyzed with MS/MS detector.
It was shown that the HGT1 gene is essential to transport γ-Glu-Val-Gly from the medium, but PTR2 is not.

[3] = 0.01 ppm γ-Glu-Val-Gly added to medium after 19 hours, culture continued 1 hour
[4] = 0.1 ppm γ-Glu-Val-Gly added to medium after 19 hours, culture continued 1 hour
[5] = 1 ppm γ-Glu-Val-Gly added to medium after 19 hours, culture continued 1 hour
[6] = 5 ppm γ-Glu-Val-Gly added to medium after 19 hours, culture continued 1 hour
[7] = 10 ppm γ-Glu-Val-Gly added to medium after 19 hours, culture continued 1 hour
[8] = 100 ppm γ-Glu-Val-Gly added to medium after 19 hours, culture continued 1 hour

CC(C)[C@H](NC(=O)CC[C@H](N)C(=O)O)C(=O)NCC(=O)O [γ-Glu-Val-Gly]
γ-Glu-Val-Gly content in dry cells [1, 3]: 5 ppm
γ-Glu-Val-Gly content in solid content of extract [1, 3]: 21 ppm
γ-Glu-Val-Gly content in dry cells [1, 4]: 28 ppm
γ-Glu-Val-Gly content in solid content of extract [1, 4]: 96 ppm
γ-Glu-Val-Gly content in dry cells [1, 5]: 363 ppm
γ-Glu-Val-Gly content in solid content of extract [1, 5]: 1110 ppm
γ-Glu-Val-Gly content in dry cells [1, 6]: 2647 ppm
γ-Glu-Val-Gly content in solid content of extract [1, 6]: 10119 ppm
γ-Glu-Val-Gly content in dry cells [1, 7]: 5341 ppm
γ-Glu-Val-Gly content in solid content of extract [1, 7]: 17408 ppm
γ-Glu-Val-Gly concentration of extract ([1]; 50 ppm γ-Glu-Val-Gly added after 19 hours, culture continued 1 hour, 400 OD units in 1.5 ml, solid content about 1%): about 300 ppm
γ-Glu-Val-Gly content in dry cells [1, 8]: 10191 ppm
γ-Glu-Val-Gly content in solid content of extract [1, 8]: 32183 ppm
γ-Glu-Val-Gly content in dry cells ([1]; γ-Glu-Val-Gly 100 ppm added to SD medium in advance, culture 16 hours): about 20,000 ppm
intracellular γ-Glu-Val-Gly ([2]; Table 13, strain S288C hgt1Δ ptr2Δ): 0.01 mg 1^−1 OD600^−1
intracellular γ-Glu-Val-Gly ([2]; Table 13, strain S288C hgt1Δ): 0.01 mg 1^−1 OD600^−1
intracellular γ-Glu-Val-Gly ([2]; Table 13, strain S288C ptr2Δ): 1.84 mg 1^−1 OD600^−1
intracellular γ-Glu-Val-Gly ([2]; Table 13, strain S288C): 1.93 mg 1^−1 OD600^−1
intracellular γ-Glu-Val-Gly ([2]; Table 14, strain S288C PADH1-HGT1): 28.6 mg 1^−1 OD600^−1
intracellular γ-Glu-Val-Gly ([2]; Table 14, strain S288C PADH1-PTR2): 2.6 mg 1^−1 OD600^−1
intracellular γ-Glu-Val-Gly ([2]; Table 14, strain S288C): 3.3 mg 1^−1 OD600^−1
